Source: patent US10259847B2, “Beta-hairpin peptidomimetics” (POLYPHOR AG, priority 2014, dated 2019)
Where a SMILES comes first, the peptide text is derived from it. Bridges are numbered along the chain shown (N, C = ends). [ ]: non-standard residue; d: D form. Tle = CC(C)(C)[C@H](N)C(=O)O; dDab = NCC[C@@H](N)C(=O)O; Orn = NCCC[C@H](N)C(=O)O; Dab = NCC[C@H](N)C(=O)O; dAze = O=C(O)[C@H]1CCN1; Dap = NC[C@H](N)C(=O)O

Legend:
Assay type in all cases: cell-based
[1] = tested on: human red blood cells (hRBC); experiment: Hemolysis of human red blood cells; conditions: red cells of human, 1 h, 100
Description: Stock solutions were kept at +4° C., light protected.
Percent hemolysis was calculated as follows: (OD540peptide/OD540H2O)×100%.

[2] = tested on: Acinetobacter baumannii DSM 30008; conditions: DSM 30008
Method in brief: (§1)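 Peptide activity was tested by NCCLS broth microdilution with slight modifications. Bacteria were diluted in cation-adjusted Mueller-Hinton II broth to approximately 10^6 CFU/mL against a 0.5 McFarland standard. They were then exposed to two-fold serial peptide dilutions in broth containing 0.002% final polysorbate 80.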

[3] = tested on: Klebsiella pneumoniae ATCC 13883; conditions: ATCC 13883
Method in brief: as §1

[4] = tested on: Escherichia coli ATCC 25922; conditions: ATCC 25922
Method in brief: as §1

## CC(C)C[C@@H]1NC(=O)[C@H](CCCN)NC(=O)[C@H]2CCCN2C(=O)[C@H](C(C)C)NC(=O)[C@@H]2CSSC[C@H](NC1=O)C(=O)N[C@@H](Cc1ccc(O)cc1)C(=O)N[C@@H](C)C(=O)N[C@@H](CCCN)C(=O)N[C@H](CCN)C(=O)N[C@@H](CCN)C(=O)N[C@@H](Cc1c[nH]c3ccccc13)C(=O)N[C@@H](C)C(=O)N[C@@H](C(C)C)C(=O)N2 [Example 4, cyclo(-Leu-Cys-Tyr-Ala-Orn-^DDab-Dab-Trp-Ala-Val-Cys-Val-^DPro-Orn-)] (HELM PEPTIDE1{A.[Orn].[NCC[C@@H](N[*:1])C(=O)[*:2]].[Dab].W.A.V.C.V.[dP].[Orn].L.C.Y}$PEPTIDE1,PEPTIDE1,8:R3-13:R3|PEPTIDE1,PEPTIDE1,1:R1-14:R2$$$V2.0)
[1]
  Hemolysis at 100 μg/mL: 2.5%
[2]
  Acinetobacter baumannii DSM 30008 MIC: 2 µg/mL
[3]
  Klebsiella pneumoniae ATCC 13883 MIC: 4 µg/mL
[4]
  Escherichia coli ATCC 25922 MIC: 2 µg/mL

## CC(C)C[C@@H]1NC(=O)[C@@H]2CCCN2C(=O)[C@H]2CCCN2C(=O)[C@H](CO)NC(=O)[C@@H]2CNC(=O)CC[C@H](NC1=O)C(=O)N[C@@H](Cc1ccc(O)cc1)C(=O)N[C@@H](CCN)C(=O)N[C@@H](CCCN)C(=O)N[C@H](CCN)C(=O)N[C@@H](CCN)C(=O)N[C@@H](Cc1c[nH]c3ccccc13)C(=O)N[C@@H](CCN)C(=O)N[C@@H](C(C)(C)C)C(=O)N2 [Example 34, cyclo(-Leu-Glu-Tyr-Dab-Orn-^DDab-Dab-Trp-Dab-tBuGly-Dap-Ser-^DPro-Pro-)] (cyclo(LEY[Dab][Orn][dDab][Dab]W[Dab][Tle][Dap]S[dP]P); lactam 2-11)
[1]
  Hemolysis at 100 μg/mL: 1%
[2]
  Acinetobacter baumannii DSM 30008 MIC: 1 µg/mL
[3]
  Klebsiella pneumoniae ATCC 13883 MIC: 0.5 µg/mL
[4]
  Escherichia coli ATCC 25922 MIC: 0.5 µg/mL

## CC(C)C[C@@H]1NC(=O)[C@@H]2CCCN2C(=O)[C@H]2CCCN2C(=O)[C@H](CO)NC(=O)[C@@H]2CCNC(=O)C[C@H](NC1=O)C(=O)N[C@@H](Cc1ccc(O)cc1)C(=O)N[C@@H](CCN)C(=O)N[C@@H](CCCN)C(=O)N[C@H](CCN)C(=O)N[C@@H](CCN)C(=O)N[C@@H](Cc1c[nH]c3ccccc13)C(=O)N[C@@H](CCN)C(=O)N[C@@H](C(C)(C)C)C(=O)N2 [Example 22, cyclo(-Leu-Asp-Tyr-Dab-Orn-^DDab-Dab-Trp-Dab-tBuGly-Dab-Ser-^DPro-Pro-)] (HELM PEPTIDE1{L.D.Y.[Dab].[Orn].[NCC[C@@H](N[*:1])C(=O)[*:2]].[Dab].W.[Dab].[CC(C)(C)[C@H](N[*:1])C(=O)[*:2]].[Dab].S.[dP].P}$PEPTIDE1,PEPTIDE1,2:R3-11:R3|PEPTIDE1,PEPTIDE1,1:R1-14:R2$$$V2.0)
[1]
  Hemolysis at 100 μg/mL: 1.5%
[2]
  Acinetobacter baumannii DSM 30008 MIC: 1 µg/mL
[3]
  Klebsiella pneumoniae ATCC 13883 MIC: 0.5 µg/mL
[4]
  Escherichia coli ATCC 25922 MIC: 0.5 µg/mL

## CC(C)C[C@@H]1NC(=O)[C@@H]2CCCN2C(=O)[C@H]2CCCN2C(=O)[C@H](CO)NC(=O)[C@@H]2CCC(=O)NC[C@H](NC1=O)C(=O)N[C@@H](Cc1ccc(O)cc1)C(=O)N[C@@H](CCN)C(=O)N[C@@H](CCCN)C(=O)N[C@H](CCN)C(=O)N[C@@H](CCN)C(=O)N[C@@H](Cc1c[nH]c3ccccc13)C(=O)N[C@@H](CCN)C(=O)N[C@@H](C(C)(C)C)C(=O)N2 [Example 29, cyclo(-Leu-Dap-Tyr-Dab-Orn-^DDab-Dab-Trp-Dab-tBuGly-Glu-Ser-^DPro-Pro-)] (cyclo(L[Dap]Y[Dab][Orn][dDab][Dab]W[Dab][Tle]ES[dP]P); lactam 2-11)
[1]
  Hemolysis at 100 μg/mL: 0.5%
[2]
  Acinetobacter baumannii DSM 30008 MIC: 1 µg/mL
[3]
  Klebsiella pneumoniae ATCC 13883 MIC: 0.5 µg/mL
[4]
  Escherichia coli ATCC 25922 MIC: 1 µg/mL

## CC(C)[C@@H]1NC(=O)[C@@H]2CCCN2C(=O)[C@H]2CCN2C(=O)[C@H]([C@@H](C)O)NC(=O)[C@@H]2CC(=O)NCC[C@H](NC1=O)C(=O)N[C@@H](Cc1ccc(O)cc1)C(=O)N[C@@H](CCN)C(=O)N[C@@H](CN)C(=O)N[C@H](CCN)C(=O)N[C@@H](CCN)C(=O)N[C@@H](Cc1c[nH]c3ccccc13)C(=O)N[C@@H](CCN)C(=O)N[C@@H](C(C)(C)C)C(=O)N2 [Example 12, cyclo(-Val-Dab-Tyr-Dab-Dap-^DDab-Dab-Trp-Dab-tBuGly-Asp-Thr-^DAzt-Pro-)] (cyclo(DT[dAze]PV[Dab]Y[Dab][Dap][dDab][Dab]W[Dab][Tle]); lactam 1-6)
[1]
  Hemolysis at 100 μg/mL: 4%
[2]
  Acinetobacter baumannii DSM 30008 MIC: 1 µg/mL
[3]
  Klebsiella pneumoniae ATCC 13883 MIC: 0.25 µg/mL
[4]
  Escherichia coli ATCC 25922 MIC: 0.5 µg/mL
